Marks after values point to notes of the source that are not given here.
Assays:
[1] = tested on: Raji cells; test: colony-forming ability (CFA) assay, ADM; format: cell-based; conditions: ADM 5 ng/mL alone; 14 days
Procedure: Analysis for colony forming ability (CFA): U937 cells (ATCC), in the logarithmic phase, were maintained in RPMI 1640 medium supplemented with 20% FBS and 0.4% methyl cellulose (Sigma) by the semi-solid colony culture method and were adjusted to a density of 5×10^3 cells/mL. The cells were divided into control groups and test groups, and each group was assayed in triple wells. U937 cells in the control groups were treated with DNR alone, with the final concentrations of 0 ng/mL and 0.5 ng/mL. U937 cells in the test group were treated with DNR of various concentrations combined with PDCD5 of various concentrations, while the final concentrations of PDCD5 were 0 μg/mL, 0.625 μg/mL, 1.25 μg/mL, and 2.5 μg/mL, respectively. After incubation for 14 days in a 37° C., 5% CO2 and saturatedly humidified incubator, a colony with more than 30 cells was counted by an inverted microscope in order to analyze colony forming ability of each group. […]
Methods: Colony-forming ability (CFA) assay: Raji cells of logarithmic growth phase were cultured, and the method was the same as that in Example 8. […] The numbers of colonies (containing≧30 cells) were counted by inverted microscope to observe the CFA, which is indicated by the ratio of average number of colony formation in each of the test groups versus that of the untreated control group.

[2] = tested on: K562 cells; test: Annexin-V apoptosis by flow cytometry, Ara-C; format: cell-based; conditions: Ara-C 0.1 μg/mL; PDCD5 60 μg/mL where combined; 48 hours
Procedure: Methods: Cell staining with FITC/Annexin-V and cell apoptosis detection in vitro by flow cytometry: K562 cells (ATCC) were maintained in RPMI 1640 (Life Technologies, USA) supplemented with 10% FBS (Hyclone, USA), and were plated in 24-well culture dishes to a density of 2×10^5 cells per well. rhPDCD5 protein was added in each well with a final concentration of 15 μg/mL, 30 μg/mL and 60 μg/mL, respectively. Chemotherapeutic drug Ara-C (Pharmacia, Italia) was then added with a final concentration of 0.1 μg/mL and RPMI 1640 medium supplemented with 10% FBS was added to bring the culture system to 1 mL. After incubation for 48 hours, the cells were stained with Annexin-V/PI (Biosea) and then were analyzed for apoptosis by flow cytometry.

[3] = tested on: U937 cells; test: cell apoptosis assay, DNR; format: cell-based; conditions: PDCD5 5 μg/mL where combined, 24 hours
Procedure: Methods: Cell apoptosis assay: U937 cells (ATCC), in the logarithmic phase, were maintained in RPMI 1640 (Life Technologies, USA) supplemented with 10% FBS (Hyclone, USA), and were adjusted to a density of 2×10^5 cells/mL and then were divided into control groups and test groups. U937 cells in the control groups were treated with DNR (Pharmacia Italia SPA) alone, with the final concentrations of 0 μg/mL, 0.05 μg/mL, and 0.1 μg/mL. U937 cells in the test groups were treated with DNR of various concentrations combined with PDCD5 of various concentrations, with the final concentrations of PDCD5 being 0 μg/mL, 2.5 μg/mL, and 5 μg/mL, respectively. After being incubated for 24 hours in a 37° C., 5% CO2 and saturatedly humidified incubator, the cells were stained with Annexin-V/PI (Biosea) and then were analyzed for apoptosis with a FACSCalibur flow cytometer.

[4] = tested on: U937 cells; test: colony forming ability (CFA), DNR; format: cell-based; conditions: DNR 0.5 ng/mL alone; 14 days
Procedure: (§1) Analysis for colony forming ability (CFA): U937 cells (ATCC), in the logarithmic phase, were maintained in RPMI 1640 medium supplemented with 20% FBS and 0.4% methyl cellulose (Sigma) by the semi-solid colony culture method and were adjusted to a density of 5×10^3 cells/mL. The cells were divided into control groups and test groups, and each group was assayed in triple wells. U937 cells in the control groups were treated with DNR alone, with the final concentrations of 0 ng/mL and 0.5 ng/mL. U937 cells in the test group were treated with DNR of various concentrations combined with PDCD5 of various concentrations, while the final concentrations of PDCD5 were 0 μg/mL, 0.625 μg/mL, 1.25 μg/mL, and 2.5 μg/mL, respectively. After incubation for 14 days in a 37° C., 5% CO2 and saturatedly humidified incubator, a colony with more than 30 cells was counted by an inverted microscope in order to analyze colony forming ability of each group. The colony forming ability was shown as the ratio of average number of colony in each group versus that of the untreated control group in which the final concentrations of DNR and PDCD5 were 0 μg/mL.

[5] = tested on: Raji cells; test: FITC/Annexin-V apoptosis by flow cytometry, DNR; format: cell-based; conditions: DNR 0.05 μg/mL; PDCD5 5 μg/mL where combined; 24 h
Procedure: Methods: Raji cells were cultured in RPMI 1640 medium (Life Technologies, USA) supplemented with 10% Fetal Bovine Serum (FBS, Hyclone, USA). The cells were seeded in 24-well plates with 2×10^5 cells per well. rhPDCD5 was added to each well and the final concentrations were 0 μg/mL, 2.5 μg/mL and 5 μg/mL, respectively. Subsequently, DNR was added and the final concentrations were 0 μg/mL and 0.05 μg/mL, and RPMI 1640 medium supplemented with 10% FBS was added to ensure the system was brought to 1 mL. After 24 h incubation, the cells were stained with FITC/Annexin-V (Beijing Biosea Biotechnology Co., Ltd.) and the apoptosis was detected by flow cytometry.

[6] = tested on: Jurkat cells; test: FITC/Annexin-V apoptosis by flow cytometry, DNR; format: cell-based; conditions: DNR 0.05 μg/mL; PDCD5 5 μg/mL where combined; 24 h
Procedure: Methods: The density of Jurkat cells were adjusted by RPMI 1640 medium (Life Technologies, USA) supplemented with 10% Fetal Bovine Serum (FBS, Hyclone, USA). […] Subsequently, DNR (Pharmacia Italia S.P.A) was added with its final concentration of 0.05 μg/mL, and RPMI 1640 medium supplemented with 10% FBS was added to ensure the system to be 1 mL. After 24h incubation, the sample was stained with FITC/Annexin-V (Beijing Biosea Biotechnology CO., LTD) and detected for apoptosis by flow cytometry.

[7] = tested on: U937 xenografts; test: U937 nude mice xenograft model, DNR; format: in vivo, BALB/c nude mice
Procedure: Methods: U937 nude mice xenograft model: BALB/c nude mice (5-6 weeks of age) were pretreated with cyclophosphamide (100 mg/kg, injected intraperitoneally once a day for two consecutive days). On day 3, 1×10^7 (100 μl) of U937 cells were subcutaneously (s.c.) injected into a single flank of each of the mice. The treatments began on day 7 after inoculation when the average tumor diameter reached about 5 mm. The mice were divided randomly into four groups (n=6, i.e., six mice in each group) and treated with normal saline (NS), rhPDCD5 (40 μg, locally injected into the tumor), DNR (40 μg, intraperitoneal) or DNR (40 μg) plus rhPDCD5 (40 μg), once a day for 8 consecutive days.
Tumor volume (V) was determined every other day by vernier caliper measurements and calculated based on the equation of V=ab^2/2, where “a” refers to a long tumor diameter and “b” refers to a short diameter, then tumor volume growth curve was drawn. The percentage of reductions in tumor growth was calculated using the formula: [1-(Tf-Ti)/(Cf-Ci)]×100, where Tf and Ti are the final and initial mean tumor volumes, respectively, of the group receiving a specific treatment, and Cf and Ci are the final and initial mean tumor volumes, respectively, of the NS control group. After the treatment, tumors were collected and weighed and tissues were sectioned and processed by histological hematoxylin and eosin (H&E) staining. Results were statistically analyzed using SPSS 13.0. The measurements were expressed as the mean±standard deviation. Data were analyzed by the single-factor ANOVA and Student's t test and are presented as mean±standard deviation (SD). P<0.05 was considered statistically significant.

[8] = tested on: mouse livers; test: HE staining of liver paraffin sections of treated K562 xenograft mice; format: in vivo, BALB/c nu/nu mice; conditions: no PDCD5; Imatinib 1.2 mg oral or IDR 25 μg i.p.; n=6
Procedure: (§2) Methods: BALB/c nu/nu female mice (6-8 weeks of age) were injected intraperitoneally with cyclophosphamide (CTX) (Jiangsu Hengrui Medicine Co., Ltd.), 2 mg/day per mouse for two days. One day after the second cyclophosphamide injection, 1.5×10^7 of K562 cells were injected subcutaneously into the single armpit of each of the mice. The mice bearing K562 cell xenografts were divided randomly into nine groups (n=6, i.e., six mice in each group) and each of the mice was i.p. treated, respectively, with normal saline, PDCD5, IDR (Sigma Corporation), and IDR plus PDCD5. […] At the end of the experiment, mice were killed. The mice were the same batch of that of Example 6. The excised liver of mice after treatment were fixed in 10% neutrally buffered formalin and then embedded in paraffin after dehydration. The paraffin embedding was cut and paraffin sections after HE staining were used to observe the necrosis of experimental mouse livers. Meanwhile, paraffin sections after Tunel (Roche Inc.) staining were used to observe the apoptosis of experimental mouse livers, and then the number of apoptotic cells was counted in five high-power microscope field for statistical analysis.

[9] = tested on: mice hearts; test: HE staining of heart paraffin sections of treated K562 xenograft mice; format: in vivo, BALB/c nu/nu mice; conditions: no PDCD5; Imatinib 1.2 mg oral or IDR 25 μg i.p.; n=6
Procedure: as §2, with “hearts” for “liver”, “myocardial congestion, hemorrhage, and myofiber degeneration” for “necrosis”, “heart” for “experimental mouse livers. Meanwhile, paraffin sections after Tunel (Roche Inc.) staining were used to observe the apoptosis of experimental mouse livers, and then the number of apoptotic cells was counted”, “mice.” for “five high-power microscope field for statistical analysis.”

[10] = tested on: HL-60 cells; test: cell apoptosis assay, As2O3; format: cell-based; conditions: for rate of apoptosis: PDCD5 20 μg/mL where combined, 24 h
Procedure: Methods: Cell apoptosis assay: HL-60 cells (ATCC) of logarithmic growth phase were cultured and the density of cells was 2×10^5/mL. The cells were divided into control and test groups. In the control groups, the HL60 cells were treated only with As2O3 (Harbin Yida Pharmaceutical Co., Ltd.), and the final concentration of As2O3 were 0 μg/mL, 0.25 μg/mL and 0.5 μg/mL, respectively. In the test groups, the HL60 cells were treated with As2O3 in the various concentrations combined with PDCD5 in various concentrations, the final concentrations of PDCD5 being 0 μg/mL, 5 μg/mL, 10 μg/mL and 20 μg/mL, respectively. The cells were incubated in a 37° C., 5% CO2 and saturatedly humidified incubator for 24 h, and subsequently were stained with Annexin-V/PI and detected for apoptosis by flow cytometer.

[11] = tested on: HL60 cells; test: colony-forming ability (CFA) assay, As2O3; format: cell-based; conditions: As2O3 0.25 μg/mL alone; 14 days
Procedure: as §1
Colony-forming ability (CFA) assay: HL60 cells of logarithmic growth phase were cultured by a method identical to that in Example 8. The cells were divided into control and test groups (each with 3 wells): In the control groups, the HL60 cells were treated only with arsenic trioxide and the final concentration of which were 0 μg/mL and 0.25 μg/mL, respectively; in the test groups, the HL60 cells were treated with different concentrations of As2O3, which was combined with different concentrations of PDCD5, the final concentrations of PDCD5 were 0 μg/mL, 5 μg/mL, 10 μg/mL and 20 μg/mL, respectively. Cultures were incubated in a 37° C., 5% CO2 and saturatedly humidified incubator for 14 days. The numbers of colonies (containing≧30 cells) were counted on day 14 by inverted microscope. The colony-forming ability was observed as the ratio of the number of average colony formation in the test groups versus that in the untreated control group. […]

Molecule: COc1cccc2c1C(=O)c1c(O)c3c(c(O)c1C2=O)C[C@@](O)(C(=O)CO)C[C@@H]3O[C@H]1C[C@H](N)[C@H](O)[C@H](C)O1 [ADM, adriamycin]
- CFA (ratio to untreated control) [1]: 32%

Molecule: Nc1ccn([C@@H]2O[C@H](CO)[C@@H](O)[C@@H]2O)c(=O)n1 [Ara-C, arabinoside]
- apoptosis rate [2]: 34.87%

Molecule: COc1cccc2c1C(=O)c1c(O)c3c(c(O)c1C2=O)C[C@@](O)(C(C)=O)C[C@@H]3O[C@H]1C[C@H](N)[C@H](O)[C@H](C)O1 [DNR, Daunorubicin]
- rate of apoptosis ([3]; high-dose DNR 0.1 μg/mL): 23.01%
- rate of apoptosis ([3]; low-dose DNR 0.05 μg/mL): 21.23%
- CFA (ratio to untreated control) [4]: 79%
- rate of apoptosis [5]: 17.46%
- rate of apoptosis [6]: 27.01%
- average tumor weight ([7]; after the treatment, DNR 40 μg, PDCD5 40 μg where combined): 0.45 ± 0.15 g
- inhibition of tumor growth (percentage of inhibition on tumor sizes vs control group) ([7]; day 15, DNR 40 μg, rhPDCD5 40 μg where combined): 31.97%
- Average size of tumors (mean ± SD) ([7]; fifteenth day, rhPDCD5 40 μg into the tumor, DNR 40 μg intraperitoneal, once a day for 8 days): 410.27 ± 154.93* mm^3

Molecule: Cc1ccc(NC(=O)c2ccc(CN3CCN(C)CC3)cc2)cc1Nc1nccc(-c2cccnc2)n1 [Imatinib]
- Sinusoidal expansion, congestive hemorrhage and necrosis of liver cells surrounding sinusoid: mice graded + [8]: 2 number of mice
- Sinusoidal expansion, congestive hemorrhage and necrosis of liver cells surrounding sinusoid: mice graded ++ [8]: 0 number of mice
- Sinusoidal expansion, congestive hemorrhage and necrosis of liver cells surrounding sinusoid: mice graded +/− [8]: 0 number of mice
- Sinusoidal expansion, congestive hemorrhage and necrosis of liver cells surrounding sinusoid: mice graded − [8]: 4 number of mice
- Myocardial hemorrhage and congestion: mice graded + [9]: 1 number of mice
- Myocardial hemorrhage and congestion: mice graded ++ [9]: 1 number of mice
- Myocardial hemorrhage and congestion: mice graded − [9]: 4 number of mice
- Myofiber degeneration: mice graded + [9]: 0 number of mice
- Myofiber degeneration: mice graded − [9]: 6 number of mice

Molecule: arsenious acid [As2O3]
- enhancement of induced apoptosis [10]: can enhance PDCD5-induced apoptosis
- rate of apoptosis ([10]; high-dose As2O3 0.5 μg/mL): 78.02%
- rate of apoptosis ([10]; low-dose As2O3 0.25 μg/mL): 21.23%
- CFA (ratio to untreated control) [11]: 52%

— US20110009342A1, “USES OF PDCD5 POLYPEPTIDE FOR TUMOR CHEMOTHERAPY AND ORGAN PROTECTION” (priority 2008, published 2011)
